For data set [1], the system named is human peripheral blood mononuclear cells (hPBMCs). Put plainly: Immunogenic reaction on human PBMCs (LEGENDplex Human Inflammation Panel). The format is cell-based. Conditions: for immune stimulation (secretion of inflammatory cytokines and chemokines): 1, 5, 10 uM aptamer, 24 and 72 h, versus mock or control aptamer. As to the method:
147. Human PBMCs were isolated from buffy coats provided by Carter BloodCare(Bedford, TX, USA). Isolation was carried out through density-gradient centrifugation utilizing FicollPaque Plus from GE Healthcare. The isolated human PBMCs suspended in cRPMI media were subjected to stimulation with or without the AYA1809002 and AYA1809004 aptamers and a control aptamer. Various concentrations (1, 5, and 10 uM) of these aptamers were used, along with positive control stimuli such as LPS (200 ng/mL), ODN 1826 (20 uM, Invitrogen), or a combination of LPS (100 ng/mL) and ODN 1826 (10 uM). Following incubation periods of 24 and 72 h, the cell supernatant was collected via centrifugation at 200 g for 3 min. Cytokine levels were evaluated using the LEGENDplex Human Inflammation Panel 1 from BioLegend (cat #740808, San Diego, CA, USA) following the manufacturer's protocol, soluble analytes were acquired using a Navios EX flow cytometer (Beckman Coulter Inc, Pasadena, CA USA), and subsequent analysis was performed using BioLegend's LEGENDPLEX™ system(San Diego, CA, USA).

The target of data set [2] is T1, human alpha-thrombin protein (Homo sapiens, UniProt P00734).
T1 construct: Native human alpha-thrombin protein; purchased ThermoFisher Scientific RP-43100; host or cells: native protein
Put plainly: ELISA-based binding assay of biotinylated thrombin aptamers to thrombin protein. Conditions: for Kd: ELISA-based competition assay, 5′ biotin aptamer with or without 100-fold excess non-biotinylated aptamer, estimated, read-out: binding affinity to thrombin, dissociation constant (Kd); for binding to immobilized human thrombin (absorbance at 450 nm): top nine enriched aptamers, biotinylated, FIG. 2A. As to the method:
135. Native human alpha-thrombin protein (ThermoFisher Scientific, cat #RP-43100, Waltham, MA, USA) was added to each well of a 96-well plate (Nunc MaxiSorp flat-bottom 96-well plates, ThermoFisher Scientific, cat #44-2404-21, Waltham, MA, USA) at a concentration of 250 nM in Tris-buffered saline with a volume of 100 μL per well. The plate was then incubated at 4° C. for 16 h to allow the wells to become coated with thrombin. After removing the thrombin solution, the wells were washed and blocked using blocking buffer (20 mM Tris, 150 mM NaCl pH 7.5, 2% BSA, 0.1% Tween 20 and 100 μg/mL of sheared salmon sperm DNA) for a 1 h duration. Next, biotinylated aptamers at the indicated concentrations in a volume of 100 μL were added to the wells in an incubation buffer (20 mM Tris, 150 mM NaCl pH 7.5, 0.1% BSA, 0.1% Tween 20 and 100 μg/mL of sheared salmon sperm DNA) and incubated for 1 h at room temperature. In the competition binding assay, unlabeled aptamers were added along with the biotinylated aptamers, with the unlabeled aptamers being present in a 100-fold excess compared to the biotinylated aptamers. Following three washing steps with wash buffer (20 mM Tris, 150 mM NaCl pH 7.5, 0.1% BSA and 0.1% Tween 20), streptavidin-HRP (ThermoFisher Scientific, cat #21130, Waltham, MA, USA) was added at a dilution of 1:5000 in the incubation buffer. The plate was washed again three times to remove any unbound reagents. The bound biotinylated aptamers were then detected using 3,3′,5,5′-Tetramethylbenzidine (TMB) substrate (ThermoFisher Scientific, cat #34021, Waltham, MA, USA) following the manufacturer's instructions.

The test system of another data set is human citrated plasma. In words: Activated partial thromboplastin time (APTT) assay in human citrated plasma. Conditions: 2 uM, 2 h, versus untreated control. The format is biochemical. As to the method:
137. Sterile human blood in sodium citrate was purchased from the Rockland Immuno- chemicals, Inc (cat #R214-0050, Pottstown, PA 19464, USA). Plasma was prepared by centrifugation for 10 min at 2000×g. In vitro activity assays were performed on ACLTOP analyzer manufactured by Instrumentation Laboratory, which is a type of coagulation analyzer commonly used in clinical laboratories to measure clotting times and assess coagulation parameters. The ACLTOP analyzer is designed to perform a wide range of coagulation tests, including Factor II activity, prothrombin time (PT), activated partial thromboplastin time (APTT), fibrinogen, and other related assays. ACLTOP analyzer uses HemosIL reagents developed by Instrumentation Laboratory company (Bedford, MA, USA) to perform coagulation tests.
140. […] APTT time was measured using the synthetic phospholipid reagent SynthASIil for quantitative determination in human citrated plasma on an ACLTOP coagulation analyzer manufactured by Instrumentation Laboratory (Bed- ford, MA, USA).
146. Modified aptamers chemically crosslinked with TAG, PEG, and cholesterol entities at the 3′ end, were purchased from IDT (Integrated DNA Technologies, Coralville, IA, USA). The impact of modified AYA1809002 and AYA1809004 aptamers on Factor II activity, PT, and APTT was evaluated using the same protocol as was used for the unmodified aptamers. Additionally, the potential for reversal was investigated using the respective reverse complement for each aptamer.

The test system of data set [3] is Salmonella typhimurium strains TA98, TA100, TA1535, TA1537 and Escherichia coli strains wp2 [pKM101] and wp2 uvrA. Put plainly: Ames test (Xenometrix Ames MPF PENTA I). The format is cell-based. The note with it: 0.5 uM to 10 uM; with and without S9. The method, then: 148. The mutagenic potential of AYA1809002 and AYA1809004 was evaluated using the Ames test with the Xenometrix Ames MPF PENTA I kit, including S9 and Positive Controls (Aniara Diagnostica, code: ACO1-512-S2-P; manufacturer's part number: C01-512-S2-P, West Chester Township, OH).
165. To assess the mutagenicity of the aptamers, we performed Ames test, a widely used assay for evaluating the mutagenicity of chemical compounds. The Ames test is a bac-terial reverse mutation assay that detects the ability of a substance to induce mutations in the DNA of certain strains of bacteria. It utilizes various bacterial strains, including Salmonella typhimurium strains TA98, TA100, TA1535, and TA1537, as well as the Escherichia coli strains wp2 [pKM101]and wp2 uvrA. To evaluate the mutagenic potential of an aptamer, amino acid-requiring bacterial organisms are exposed to different concentrations of the aptamer and mutagenic events are assessed by selecting for reversion events. In this context, the aptamers AYA1809002 and AYA1809004 were supplemented at increasing concentrations ranging from 0.5 uM to 10 uM.
For orientation: The Ames test detects mutagens through reverse mutation in bacteria.

“Also recorded” adds a separate entry of the source.

The Kd is the free concentration of one partner at which half of the binding sites on the other are occupied at equilibrium, for simple one-to-one binding. Take “AYA1809004: ssDNA thrombin aptamer TCGTCAAGGTACGGTTGGGGGGGTGGGTGTTGACGTTGAA (DNA, backbone not given here)”: the “immune stimulation (secretion of inflammatory cytokines and chemokines)” value in data set [1] is given as “do not exhibit immune-stimulating properties”. Further, in data set [2], the Kd was 13 nM and the “binding to immobilized human thrombin (absorbance at 450 nm)” value is listed as “strong binding capabilities”. For the same substance, in the data set with human citrated plasma, the “increase in APTT time” value is “approximate four-fold increase”. In data set [3], the “mutagenicity (revertants)” value is recorded as “do not exhibit mutagenic properties”.

“AYA1809002: ssDNA thrombin aptamer GCGGTGTTGCTGGGGTTGGGAGGTTGGAGGAAGCAATCGC”: in data set [1], the “immune stimulation (secretion of inflammatory cytokines and chemokines)” value is on record as “do not exhibit immune-stimulating properties; also recorded: did not exhibit immune-stimulating properties”. The “Safety: immunogenicity and side effects” value in data set [1] (Table 3) is recorded as “Low immunogenicity”. In addition, in data set [2], the equilibrium dissociation constant (Kd) was 10 nM and the “binding to immobilized human thrombin (absorbance at 450 nm)” value is reported as “strong binding capabilities”. In the data set with human citrated plasma, the “increase in APTT time” value is “approximate four-fold increase”. Besides, the “mutagenicity (revertants)” value in data set [3] is “do not exhibit mutagenic properties; also recorded: did not exhibit mutagenic properties”.
